Source: paper PMC12752606, “METTL10‐Mediated PIAS3 Methylation Links Purine Metabolism to Gastric Cancer Progression” (Advanced Science, 2025)
Read-outs that look alike come from different tables or passages of the source.

Tests used:
[1] = Plasma pharmacokinetics after IV and PO administration; type: in vivo, male Sprague–Dawley rats; details: male, Sprague-Dawley, rat, plasma; for bioavailability: PO 10 mg/kg vs IV 1 mg/kg
Method: LZQ‐02‐023‐1 was administered to male Sprague–Dawley (SD) rats (n = 3 per group) via intravenous injection at a dose of 1 mg/kg or oral gavage at a dose of 10 mg/kg. Blood samples were collected at predetermined time points, and plasma concentrations of LZQ‐02‐023‐1 were determined using a validated LC‐MS/MS method. Briefly, working solutions of the analyte were prepared by diluting stock solutions with 50% acetonitrile in water to achieve serial concentrations (10, 20, 50, 100, 200, 500, 1000, 5000, and 10 000 ng/mL). Calibration standards were prepared by spiking 5 µL of working solution into 50 µL of blank SD rat plasma, resulting in final concentrations of 1, 2, 5, 10, 20, 50, 100, 500, and 1000 ng/mL in a total volume of 55 µL. Quality control (QC) samples were independently prepared at four concentrations (2, 5, 50, and 800 ng/mL) using blank SD rat plasma, following the same procedure as for the calibration standards. On the day of analysis, 55 µL of each calibration standard, QC sample, or unknown sample (prepared by mixing 50 µL of SD rat plasma with 5 µL of blank solution) was added to 200 µL of acetonitrile:methanol (1:1, v/v) containing an internal standard (IS) mixture for protein precipitation. The samples were vortexed for 30 s, centrifuged at 4000 rpm for 15 min at 4 °C, and the resulting supernatant was diluted threefold with water. A 10 µL aliquot of the diluted supernatant was injected into an AB Sciex Triple Quad 5500 LC‐MS/MS system for quantitative analysis. Pharmacokinetic parameters, including the maximum plasma concentration (Cmax), time to reach Cmax (Tmax), elimination half‐life (t1⁄2), area under the plasma concentration‐time curve (AUC0–t and AUC0–∞), clearance (CL), and volume of distribution (Vd), were calculated using noncompartmental analysis (NCA) in Phoenix WinNonlin 8.3 (Certara; Table S3, Supporting Information).

[2] = test system: purine nucleotides in MKN45 and AGS cells; assay: Purine metabolite levels by LC-MS; type: cell-based; details: 20 µM
Method: Cells were collected and transferred to centrifuge tubes, followed by three washes with cold PBS. The samples were then resuspended in an extraction solution (methanol: acetonitrile: water = 2:2:1, v/v/v, 1 mL) and vortexed for 30 s. The suspension underwent ice bath sonication for 10 min and frozen and thawed in liquid nitrogen for repeated three times. To fully precipitate proteins, the samples were incubated at −20 °C for 1 h. Subsequently, the cell lysates were centrifuged at 13000 rpm for 15 min at 4 °C. The supernatant was then lyophilized using a low‐temperature vacuum centrifugal concentrator and analyzed by LC‐MS using the AB SCIEX QTRAP 6500^+ system.

[3] = iv, 1 mg/kg, IV 1 mg/kg, read-out: Plasma concentration, mean
[4] = iv, 1 mg/kg, IV 1 mg/kg, individual rats R01-R03, read-out: Plasma concentration
[5] = po, 10 mg/kg, PO 10 mg/kg, read-out: Plasma concentration, mean
[6] = po, 10 mg/kg, PO 10 mg/kg, individual rats R04-R06, read-out: Plasma concentration

SMILES: Cc1ccc(Nc2ncc3c(n2)N(C)C(=O)N(c2cccc(N)c2)C3)cn1 [LZQ-02-023-01, Three‐(3‐aminophenyl)‐1‐methyl‐7‐((6‐methylpyridin‐3‐yl)amino)‐3,4‐dihydropyrimido [4,5‐d] pyrimidin‐2 (1H)‐one]
- concentration at 0.25 h [1, 3]: 30.3 ng/mL
- concentration at 0.5 h [1, 4]: 10.9 ng/mL
- concentration at 0.5 h [1, 3]: 13.1 ng/mL
- concentration at 1 h [1, 4]: 4.26 ng/mL
- concentration at 1 h [1, 3]: 4.21 ng/mL
- concentration at 2 h [1, 4]: 2.35 ng/mL
- concentration at 2 h [1, 3]: 2.11 ng/mL
- AUC(0-inf) ([1]; iv, 1 mg/kg, IV 1 mg/kg, individual rats R01-R03, read-out: AUCInf): 168 ng·h/mL
- AUC(0-t) ([1]; iv, 1 mg/kg, IV 1 mg/kg, individual rats R01-R03, read-out: AUClast): 165 ng·h/mL
- C0 ([1]; iv, 1 mg/kg, IV 1 mg/kg, individual rats R01-R03, read-out: C0): 2110 ng/mL
- clearance ([1]; iv, 1 mg/kg, IV 1 mg/kg, individual rats R01-R03, read-out: Cl_obs): 99.3 mL/min/kg
- MRT inf ([1]; iv, 1 mg/kg, IV 1 mg/kg, individual rats R01-R03, read-out: MRTInf_obs): 7.8 min
- half-life ([1]; iv, 1 mg/kg, IV 1 mg/kg, individual rats R01-R03, read-out: T1/2 (converted)): 43.3 min
- AUC(0-inf) ([1]; iv, 1 mg/kg, IV 1 mg/kg, read-out: AUCInf, mean): 178 ng·h/mL
- AUC(0-t) ([1]; iv, 1 mg/kg, IV 1 mg/kg, read-out: AUClast, mean): 176 ng·h/mL
- clearance ([1]; iv, 1 mg/kg, IV 1 mg/kg, read-out: Cl_obs, mean): 94.2 mL/min/kg
- MRT inf ([1]; iv, 1 mg/kg, IV 1 mg/kg, read-out: MRTInf_obs, mean): 6.96 min
- half-life ([1]; iv, 1 mg/kg, IV 1 mg/kg, read-out: T1/2, mean (converted)): 37.2 min
- half-life ([1]; iv, 1 mg/kg, IV administration, male SD rats, read-out: Plasma half-life (converted)): ~37.2 min
- bioavailability ([1]; po, 10 mg/kg, individual rats R04-R06, read-out: F (bioavailability)): 1.82%
- bioavailability ([1]; po, 10 mg/kg, read-out: F (bioavailability), mean): 1.82%
- concentration at 0.25 h [1, 5]: 23.9 ng/mL
- concentration at 0.5 h [1, 6]: 14.1 ng/mL
- concentration at 0.5 h [1, 5]: 18.1 ng/mL
- concentration at 1 h [1, 5]: 5.83 ng/mL
- concentration at 2 h [1, 5]: 6.5 ng/mL
- concentration at 4 h [1, 6]: 1.99 ng/mL
- concentration at 4 h [1, 5]: 1.79 ng/mL
- AUC(0-inf) ([1]; po, 10 mg/kg, PO 10 mg/kg, individual rats R04-R06, read-out: AUCInf): 32.4 ng·h/mL
- Cmax ([1]; po, 10 mg/kg, PO 10 mg/kg, individual rats R04-R06, read-out: Cmax): 39 ng/mL
- MRT inf ([1]; po, 10 mg/kg, PO 10 mg/kg, individual rats R04-R06, read-out: MRTInf_obs): 111 min
- Tmax ([1]; po, 10 mg/kg, PO 10 mg/kg, individual rats R04-R06, read-out: Tmax): 15 min
- AUC(0-inf) ([1]; po, 10 mg/kg, PO 10 mg/kg, read-out: AUCInf, mean): 32.3 ng·h/mL
- AUC(0-t) ([1]; po, 10 mg/kg, PO 10 mg/kg, read-out: AUClast, mean): 28.6 ng·h/mL
- Cmax ([1]; po, 10 mg/kg, PO 10 mg/kg, read-out: Cmax, mean): 27.7 ng/mL
- MRT inf ([1]; po, 10 mg/kg, PO 10 mg/kg, read-out: MRTInf_obs, mean): 114 min
- half-life ([1]; po, 10 mg/kg, PO 10 mg/kg, read-out: T1/2, mean (converted)): 90.6 min
- Tmax ([1]; po, 10 mg/kg, PO 10 mg/kg, read-out: Tmax, mean): 20 min
- half-life ([1]; po, 10 mg/kg, PO administration, male SD rats, read-out: Plasma half-life (converted)): ~90.6 min
- Levels of purine nucleotides [2]: decreased
